Reference: patent publication US8834423B2, “Dissolvable microneedle arrays for transdermal delivery to human skin” (University of Pittsburgh—of the Commonwealth System of …, priority 2009, dated 2014)

System: epidermal cells
Conditions: 5 mg/g of CMC, pyramidal array applied 5 minutes, 72 hours of exposure
Description: This is a therapeutically relevant concentration based on the area of skin targeted, yet well below levels associated with systemic toxicities. […] Arrays and residual material were removed 5 minutes after application, and after 72 hours of exposure, culture living skin explants were cryo-sectioned and fixed.

Q: How did the “apoptosis (TUNEL) in skin sections” value turn out when `O=P1(N(CCCl)CCCl)NCCCO1` (stereo not shown) [CYTOXAN, cyclophosphamide] was run?
A: extensive apoptosis of epidermal cells
